Experimental data reported in paper PMC4351150 (Cancer immunology research, 2015).
Several values for one entry are separate records, joined by “and”; a condition that tells them apart may be missing. Equal entries are not always repeated.

Legend:
[1] = tested on: CD8^+ cells; type: cell-based; details: UNC-CDK4-1-pulsed T2 cells as stimulators; % of CD8^+ cells (Supplementary Figure 1)
[2] = tested on: CD8^+ T cells of HLA-A*02:01-expressing post-SCT AML patients; assay: PE-peptide/HLA-A*02:01 tetramer flow cytometry of post-SCT AML patient PBMCs; type: cell-based
[3] = tested on: CD8^+ TCRβ repertoire of Patient 5; assay: Bulk TCRβ repertoire sequencing: mapping of tetramer-associated TCRβ clonotypes; design: species or system human; details: for total share of tetramer-associated TCRβ clonotypes in TCRβ repertoire: Patient 5, sample 2 months later, 3×10^6 CD8^+ cells, Illumina HiSeq
[4] = molecular target: HLA-A*02:01 (Homo sapiens, UniProt P04439, D140Y/D185E/D98H/E176V/E277Q/G131W/G231S/I119V/I121R/I166T/I218V/L300P/L318F/N151K/N90K/P208A/P217A/Q86G/Q94H/R138H/R169H/T345S); assay: iTopia binding affinity assay

Sequence	CD8^+ cells specific for UNC-CDK4-1 [1] [%]	tetramer frequency, % of CD8^+ cells (positive patients) ([2]; 3 of 6 post-SCT AML patients, PE-UNC-CDK4-1/HLA-A*02:01 tetramer, 4°C, 25 minutes, threshold >0.01%) [%]	tetramer^+ T-cell population frequency in Patient 5 ([2]; Patient 5, day +567 post-SCT, CMV seropositive, not viremic) [%]	total share of tetramer-associated TCRβ clonotypes in TCRβ repertoire [3]	mean enrichment ratio of tetramer-associated clonotypes ([3]; clonotype frequency in tetramer^+ gate / clonotype frequency in bulk repertoire, Patient 5, t-test p < 0.0001 between antigens)	binding affinity to HLA-A*02:01 [4]
ALTPVVVTL [UNC-CDK4-1]	0.2	> 0.01	0.04	> 17% and 17.1%	1.04×10^1	high affinity to HLA-A*02:01
NLVPMVATV [pp65NLV, reference compound]				0.002%		
